# Laboratory results as given in US5358951A, “Angiotensin II receptor blocking 2, 3, 6 substituted quinazolinones” (American Cyanamid Company, priority 1993, dated 1994).
# Tested on: vasopressor response of angiotensin II
# Assay: AII Challenge: antagonism of angiotensin II vasopressor response;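 for Response Average Change: post-dose Angiotensin II-evoked rise in systolic blood pressure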
# Format: in vivo
# Conditions: for inhibition in vivo at 3 mg/kg / inhibition in vivo at 5 mg/kg: Rattus norvegicus; for inhibition in vivo at 3 mg/kg: iv; for inhibition in vivo at 5 mg/kg: po
# Description: Conscious Male Okamoto-Aoki SHR, 16-20 weeks old, weighing approximately 330 g are purchased from Charles River Labs (Wilmington, Mass.). Conscious rats are restrained in a supine position with elastic tape. The area at the base of the tail is locally anesthetized by subcutaneous infiltration with 2% procaine. The ventral caudal artery and vein are isolated, and a cannula made of polyethylene (PE) 10-20 tubing (fused together by heat) is passed into the lower abdominal aorta and vena cava, respectively. The cannula is secured, heparinized (1,000 I.U./ml), sealed and the wound is closed. The animals are placed in plastic restraining cages in an upright position. The cannula is attached to a Statham P23 Db pressure transducer, and pulsatile blood pressure is recorded to 10-15 minutes with a Gould Brush recorder. (Chan et al., (Drug Development Res., 18:75-94, 1989). Angiotensin II (human sequence, Sigma Chem. Co., St. Louis, Mo.) of 0.05 and 0.1 ug/kg i.v. is injected into all rats (predosing response). Then a test compound, vehicle or a known angiotensin II antagonist is administered i.v., i.p. or orally to each set of rats. The two doses of angiotensin II are given to each rat again at 30, 60, 90, 120, 180, 240 and 300 minutes post dosing the compound or vehicle. The vasopressor response of angiotensin II is measured for the increase in systolic blood pressure in mmHg. The percentage of antagonism or blockade of the vasopressor response of angiotensin II by a compound is calculated using the vasopressor response (increase in systolic blood pressure) of angiotensin II of each rat predosing the compound as 100%.
# [1] = 3 mg/kg I.V., AII 0.05 mcg/kg IV, 30 min post dose
# [2] = 3 mg/kg I.V., AII 0.05 mcg/kg IV, 60 min post dose
# [3] = 3 mg/kg I.V., AII 0.05 mcg/kg IV, 90 min post dose
# [4] = 3 mg/kg I.V., AII 0.05 mcg/kg IV, 120 min post dose
# [5] = 3 mg/kg I.V., AII 0.05 mcg/kg IV, 180 min post dose
# [6] = 3 mg/kg I.V., AII 0.1 mcg/kg IV, 30 min post dose
# [7] = 3 mg/kg I.V., AII 0.1 mcg/kg IV, 60 min post dose
# [8] = 3 mg/kg I.V., AII 0.1 mcg/kg IV, 90 min post dose
# [9] = 3 mg/kg I.V., AII 0.1 mcg/kg IV, 120 min post dose
# [10] = 3 mg/kg I.V., AII 0.1 mcg/kg IV, 180 min post dose
# [11] = 0.5 h, 3 mg/kg I.V., AII 0.05 mcg/kg IV, 30 min post dose
# [12] = 0.5 h, 3 mg/kg I.V., AII 0.1 mcg/kg IV, 30 min post dose
# [13] = 1 h, 3 mg/kg I.V., AII 0.05 mcg/kg IV, 60 min post dose
# [14] = 1 h, 3 mg/kg I.V., AII 0.1 mcg/kg IV, 60 min post dose
# [15] = 2 h, 3 mg/kg I.V., AII 0.05 mcg/kg IV, 120 min post dose
# [16] = 2 h, 3 mg/kg I.V., AII 0.1 mcg/kg IV, 120 min post dose
# [17] = 3 h, 3 mg/kg I.V., AII 0.05 mcg/kg IV, 180 min post dose
# [18] = 3 h, 3 mg/kg I.V., AII 0.1 mcg/kg IV, 180 min post dose
# [19] = […], 3 mg/kg I.V., AII 0.05 mcg/kg IV, 90 min post dose
# [20] = […], 3 mg/kg I.V., AII 0.1 mcg/kg IV, 90 min post dose
# [21] = 3 mg/kg I.V., AII 0.05 mcg/kg IV, 240 min post dose
# [22] = 3 mg/kg I.V., AII 0.05 mcg/kg IV, 300 min post dose
# [23] = 3 mg/kg I.V., AII 0.1 mcg/kg IV, 240 min post dose
# [24] = 3 mg/kg I.V., AII 0.1 mcg/kg IV, 300 min post dose
# [25] = 4 h, 3 mg/kg I.V., AII 0.05 mcg/kg IV, 240 min post dose
# [26] = 4 h, 3 mg/kg I.V., AII 0.1 mcg/kg IV, 240 min post dose
# [27] = 5 h, 3 mg/kg I.V., AII 0.05 mcg/kg IV, 300 min post dose
# [28] = 5 h, 3 mg/kg I.V., AII 0.1 mcg/kg IV, 300 min post dose
SMILES,Response Average Change [1] [mmHg],Response Average Change [2] [mmHg],Response Average Change [3] [mmHg],Response Average Change [4] [mmHg],Response Average Change [5] [mmHg],Response Average Change [6] [mmHg],Response Average Change [7] [mmHg],Response Average Change [8] [mmHg],Response Average Change [9] [mmHg],Response Average Change [10] [mmHg],inhibition in vivo at 3 mg/kg [11] [%],inhibition in vivo at 3 mg/kg [12] [%],inhibition in vivo at 3 mg/kg [13] [%],inhibition in vivo at 3 mg/kg [14] [%],inhibition in vivo at 3 mg/kg [15] [%],inhibition in vivo at 3 mg/kg [16] [%],inhibition in vivo at 3 mg/kg [17] [%],inhibition in vivo at 3 mg/kg [18] [%],inhibition in vivo at 3 mg/kg [19] [%],inhibition in vivo at 3 mg/kg [20] [%],further results
"CCCCc1nc2ccc([C@@H]3C[C@H]4CCC(C)(C)N4O3)cc2c(=O)n1Cc1ccc(-c2ccccc2-c2nnn[nH]2)cc1 (relative stereo) [Example 61, (Cis)-2-Butyl-6-(hexahydro-6,6-dimethylpyrrolo[1,2-b]isoxazol-2-yl)-3-[[2'-(1H-tetrazol-5-yl][1,1'-biphenyl]-4-yl]methyl]-4(3H)-quinazolinone]",7.5,10,6,13.5,15,7.5,12.5,3.5,15,16,83,84,78,73,70,67,67,65,87,92,"Response Average Change (5 mg/kg P.O., AII 0.05 mcg/kg IV, 30 min post dose): 27.5 mmHg; Response Average Change (5 mg/kg P.O., AII 0.05 mcg/kg IV, 60 min post dose): 29 mmHg; Response Average Change (5 mg/kg P.O., AII 0.05 mcg/kg IV, 90 min post dose): 30 mmHg; Response Average Change (5 mg/kg P.O., AII 0.05 mcg/kg IV, 120 min post dose): 22.5 mmHg; Response Average Change (5 mg/kg P.O., AII 0.05 mcg/kg IV, 180 min post dose): 35 mmHg; Response Average Change (5 mg/kg P.O., AII 0.1 mcg/kg IV, 30 min post dose): 32.5 mmHg; Response Average Change (5 mg/kg P.O., AII 0.1 mcg/kg IV, 60 min post dose): 35 mmHg; Response Average Change (5 mg/kg P.O., AII 0.1 mcg/kg IV, 90 min post dose): 29 mmHg; Response Average Change (5 mg/kg P.O., AII 0.1 mcg/kg IV, 120 min post dose): 30 mmHg; Response Average Change (5 mg/kg P.O., AII 0.1 mcg/kg IV, 180 min post dose): 35 mmHg; inhibition in vivo at 5 mg/kg (0.5 h, 5 mg/kg P.O., AII 0.05 mcg/kg IV, 30 min post dose): 40%; inhibition in vivo at 5 mg/kg (0.5 h, 5 mg/kg P.O., AII 0.1 mcg/kg IV, 30 min post dose): 31%; inhibition in vivo at 5 mg/kg (1 h, 5 mg/kg P.O., AII 0.05 mcg/kg IV, 60 min post dose): 37%; inhibition in vivo at 5 mg/kg (1 h, 5 mg/kg P.O., AII 0.1 mcg/kg IV, 60 min post dose): 26%; inhibition in vivo at 5 mg/kg (2 h, 5 mg/kg P.O., AII 0.05 mcg/kg IV, 120 min post dose): 51%; inhibition in vivo at 5 mg/kg (2 h, 5 mg/kg P.O., AII 0.1 mcg/kg IV, 120 min post dose): 36%; inhibition in vivo at 5 mg/kg (3 h, 5 mg/kg P.O., AII 0.05 mcg/kg IV, 180 min post dose): 24%; inhibition in vivo at 5 mg/kg (3 h, 5 mg/kg P.O., AII 0.1 mcg/kg IV, 180 min post dose): 26%; inhibition in vivo at 5 mg/kg ([…], 5 mg/kg P.O., AII 0.05 mcg/kg IV, 90 min post dose): 35%; inhibition in vivo at 5 mg/kg ([…], 5 mg/kg P.O., AII 0.1 mcg/kg IV, 90 min post dose): 38%"
CCCCc1nc2ccc([C@H]3C[C@]4(C)CCCCN4O3)cc2c(=O)n1Cc1ccc(-c2ccccc2-c2nnn[nH]2)cc1 (relative stereo) [Example 65],2.5,15.5,11,8,25,2.5,11,16.5,12.5,17.5,95,95,66,77,82,74,45,64,76,66,–
"CCCCc1nc2ccc([C@@]3(C)C[C@@H]4CCCCN4O3)cc2c(=O)n1Cc1ccc(-c2ccccc2-c2nnn[nH]2)cc1 (relative stereo) [Example 67, Cis-2-Butyl-6-(hexahydro-2-methyl-2H-isoxazolo[2,3-a]pyridin-2-yl)-3-[[2'-(1H-tetrazol-5-yl)[1,1'-biphenyl]-4-yl]methyl]-4(3H)-quinazolinone]",20,7.5,7.5,12.5,15,14,15,12.5,10,11.5,61,77,85,75,76,83,71,81,85,79,Response Average Change [21]: 7.5 mmHg; Response Average Change [22]: 14 mmHg; Response Average Change [23]: 11 mmHg; Response Average Change [24]: 17.5 mmHg; inhibition in vivo at 3 mg/kg [25]: 85%; inhibition in vivo at 3 mg/kg [26]: 82%; inhibition in vivo at 3 mg/kg [27]: 73%; inhibition in vivo at 3 mg/kg [28]: 71%
"CCCCc1nc2ccc([C@]3(C)C[C@@H]4CCCCN4O3)cc2c(=O)n1Cc1ccc(-c2ccccc2-c2nnn[nH]2)cc1 (relative stereo) [Example 68, Trans-2-Butyl-6-(hexahydro-2-methyl-2H-isoxazolo[2,3-a]pyridin-2-yl)-3-[[2'-(1H-tetrazol-5-yl)[1,1'-biphenyl]-4-yl]methyl]-4(3H)-quinazolinone]",2.5,2.5,7.5,11,10,5,9,9,10,20,95,91,95,84,79,82,81,64,85,84,Response Average Change [21]: 20 mmHg; Response Average Change [22]: 10 mmHg; Response Average Change [23]: 17.5 mmHg; Response Average Change [24]: 22.5 mmHg; inhibition in vivo at 3 mg/kg [25]: 61%; inhibition in vivo at 3 mg/kg [26]: 69%; inhibition in vivo at 3 mg/kg [27]: 81%; inhibition in vivo at 3 mg/kg [28]: 60%
